Data: patent US7091311B2, “Peptides and compounds that bind to a receptor” (SmithKline Beecham Corporation, priority 1996, dated 2006)
Read-outs that look alike come from different tables or passages of the source. Where a SMILES comes first, the peptide text is derived from it.

Target: T1, TPO-R (Homo sapiens, UniProt P40238)
T1 construct: made in house
T1 sequence (P40238 26-491 limits assumed): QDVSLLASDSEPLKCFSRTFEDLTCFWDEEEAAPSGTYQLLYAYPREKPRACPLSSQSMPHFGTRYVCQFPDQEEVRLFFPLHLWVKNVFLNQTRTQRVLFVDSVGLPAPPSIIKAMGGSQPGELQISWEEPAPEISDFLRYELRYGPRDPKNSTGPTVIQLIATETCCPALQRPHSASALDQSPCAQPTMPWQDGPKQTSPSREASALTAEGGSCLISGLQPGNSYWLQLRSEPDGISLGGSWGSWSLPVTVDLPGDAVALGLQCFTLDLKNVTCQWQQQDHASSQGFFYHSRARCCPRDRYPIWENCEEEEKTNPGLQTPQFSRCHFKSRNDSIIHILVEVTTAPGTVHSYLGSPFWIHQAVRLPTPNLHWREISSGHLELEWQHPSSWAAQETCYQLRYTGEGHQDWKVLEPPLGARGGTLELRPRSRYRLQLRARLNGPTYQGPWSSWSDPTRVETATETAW
Experiment: competition binding assay: MBP-TPO156 binding to immobilized TPO-R (ELISA)
Conditions: read-out: IC50
Method: A variety of methods can be used to evaluate IC50 values. For example, an equilibrium binding ELISA assay, using either MBP-TPO or lacI-peptide tracer, was used to determine whether the peptides inhibit the binding of TPO to the extracellular domain of the TPO receptor. Typically, the IC50 value were determined using the free peptide. The IC50value can be determined using the free peptide, which optionally can be C-terminally amidated, or can be prepared as an ester or other carboxy amide.
Binding affinities of chemically synthesized peptides for TPO-R were measured in a competition binding assay. The wells of a microtiter plate were coated with 1 mg streptavidin, blocked with PBS/1% BSA, followed by 50 ng of biotinylated anti-receptor immobilizing antibody (Ab179). The wells were then treated with a 1:10 dilution of soluble TPO-R harvest. Various concentrations of peptide or peptide mimetic were mixed with a constant amount of a truncated form of TPO consisting of residues 1–156 fused to the C-terminus of maltose binding protein (MBP-TPO156). The peptide MBP-TPO156 mixtures were added to the TPO-R coated wells, incubated for 2 hours at 4° C. and then washed with PBS. The amount of MBP-TPO156 that was bound at equilibrium was measured by adding a rabbit anti-sera directed against MBP, followed by alkaline phosphatase conjugated goat anti-rabbit IgG. The amount of alkaline phosphatase in each well was then determined using standard methods.
The assay is conducted over a range of peptide concentrations and the results are graphed such that the y axis represents the amount of bound MBP-TPO156 and the x axis represents the concentration of peptide or peptide mimetic.

SMILES	IC50 (Table 7, dimer compounds) [nM]	further results
CSCC[C@H](N)C(=O)N[C@H](C(=O)NCC(=O)N1CCC[C@H]1C(=O)N[C@H](C(=O)N[C@@H](CC(C)C)C(=O)N[C@@H](CCCNC(=N)N)C(=O)N[C@@H](CO)C(=O)NCC(=O)N[C@@H](CSSC[C@H](NC(=O)CNC(=O)[C@H](CO)NC(=O)[C@H](CCCNC(=N)N)NC(=O)[C@H](CC(C)C)NC(=O)[C@@H](NC(=O)[C@@H]1CCCN1C(=O)CNC(=O)[C@@H](NC(=O)[C@@H](N)CCSC)C(C)C)[C@@H](C)O)C(N)=O)C(N)=O)[C@@H](C)O)C(C)C (HELM PEPTIDE1{M.V.G.P.T.L.R.S.G.C.[am]}|PEPTIDE2{M.V.G.P.T.L.R.S.G.C.[am]}$PEPTIDE1,PEPTIDE2,10:R3-10:R3$$$V2.0)	200000	
CC(C)C[C@H](NC(=O)[C@H](Cc1c[nH]c2ccccc12)NC(=O)[C@H](CCC(N)=O)NC(=O)[C@H](CCCNC(=N)N)NC(=O)[C@H](CC(C)C)NC(=O)[C@@H](NC(=O)[C@@H]1CCCN1C(=O)CNC(=O)[C@H](CSSC[C@H](NC(=O)[C@H](CCC(N)=O)NC(=O)[C@@H](NC(=O)[C@@H](N)CO)C(C)C)C(=O)NCC(=O)N1CCC[C@H]1C(=O)N[C@H](C(=O)N[C@@H](CC(C)C)C(=O)N[C@@H](CCCNC(=N)N)C(=O)N[C@@H](CCC(N)=O)C(=O)N[C@@H](Cc1c[nH]c2ccccc12)C(=O)N[C@@H](CC(C)C)C(=O)N[C@@H](C)C(=O)N[C@@H](C)C(=O)N[C@@H](CCCNC(=N)N)C(=O)N[C@@H](CC(N)=O)C(=O)N[C@@H](Cc1c[nH]cn1)C(=O)N[C@@H](CC(C)C)C(=O)N[C@@H](CO)C(N)=O)[C@@H](C)O)NC(=O)[C@H](CCC(N)=O)NC(=O)[C@@H](NC(=O)[C@@H](N)CO)C(C)C)[C@@H](C)O)C(=O)N[C@@H](C)C(=O)N[C@@H](C)C(=O)N[C@@H](CCCNC(=N)N)C(=O)N[C@@H](CC(N)=O)C(=O)N[C@@H](Cc1c[nH]cn1)C(=O)N[C@@H](CC(C)C)C(=O)N[C@@H](CO)C(N)=O (HELM PEPTIDE1{S.V.Q.C.G.P.T.L.R.Q.W.L.A.A.R.N.H.L.S.[am]}|PEPTIDE2{S.V.Q.C.G.P.T.L.R.Q.W.L.A.A.R.N.H.L.S.[am]}$PEPTIDE1,PEPTIDE2,4:R3-4:R3$$$V2.0)	≤ 500	
CC[C@H](C)[C@@H]1NC(=O)[C@H](Cc2c[nH]c3ccccc23)NC(=O)[C@H](CCC(=O)O)NC(=O)[C@H](CCCNC(=N)N)NC(=O)[C@H](CC(C)C)NC(=O)[C@H]([C@@H](C)O)NC(=O)[C@@H]2CCCN2C(=O)CNC(=O)[C@H](CC(=O)O)NC(=O)[C@H](C)NC(=O)CSC[C@@H](C(N)=O)NC(=O)[C@H](Cc2ccccc2)NC(=O)[C@H](CO)NC1=O (HELM PEPTIDE1{[O=C(C[*:3])[*:2]].A.D.G.P.T.L.R.E.W.I.S.F.C.[am]}$PEPTIDE1,PEPTIDE1,1:R3-14:R3$$$V2.0)		IC50 (Table 4, cyclized compounds): ≤ 500 nM
CC[C@H](C)[C@H](NC(=O)[C@H](Cc1c[nH]c2ccccc12)NC(=O)[C@H](CCC(=O)O)NC(=O)[C@H](CCCNC(=N)N)NC(=O)[C@H](CC(C)C)NC(=O)[C@@H](NC(=O)[C@@H]1CCCN1C(=O)CNC(=O)[C@H](CC(=O)O)NC(=O)[C@H](C)NC(C)=O)[C@@H](C)O)C(=O)N[C@@H](CO)C(=O)N[C@@H](Cc1ccccc1)C(=O)N[C@@H](CSSC[C@H](NC(=O)[C@H](Cc1ccccc1)NC(=O)[C@H](CO)NC(=O)[C@@H](NC(=O)[C@H](Cc1c[nH]c2ccccc12)NC(=O)[C@H](CCC(=O)O)NC(=O)[C@H](CCCNC(=N)N)NC(=O)[C@H](CC(C)C)NC(=O)[C@@H](NC(=O)[C@@H]1CCCN1C(=O)CNC(=O)[C@H](CC(=O)O)NC(=O)[C@H](C)NC(C)=O)[C@@H](C)O)[C@@H](C)CC)C(N)=O)C(N)=O (HELM PEPTIDE1{[ac].A.D.G.P.T.L.R.E.W.I.S.F.C.[am]}|PEPTIDE2{[ac].A.D.G.P.T.L.R.E.W.I.S.F.C.[am]}$PEPTIDE1,PEPTIDE2,14:R3-14:R3$$$V2.0; C-terminus assumed)	≤ 500	
CC[C@H](C)[C@H](NC(=O)[C@H](Cc1c[nH]c2ccccc12)NC(=O)[C@H](CCC(=O)O)NC(=O)[C@H](CCCNC(=N)N)NC(=O)[C@H](CC(C)C)NC(=O)[C@@H](NC(=O)[C@@H]1CCCN1C(=O)CNC(=O)[C@H](CC(=O)O)NC(C)=O)[C@@H](C)O)C(=O)N[C@@H](CO)C(=O)N[C@@H](Cc1ccccc1)C(=O)N[C@@H](CSSC[C@H](NC(=O)[C@H](Cc1ccccc1)NC(=O)[C@H](CO)NC(=O)[C@@H](NC(=O)[C@H](Cc1c[nH]c2ccccc12)NC(=O)[C@H](CCC(=O)O)NC(=O)[C@H](CCCNC(=N)N)NC(=O)[C@H](CC(C)C)NC(=O)[C@@H](NC(=O)[C@@H]1CCCN1C(=O)CNC(=O)[C@H](CC(=O)O)NC(C)=O)[C@@H](C)O)[C@@H](C)CC)C(N)=O)C(N)=O (HELM PEPTIDE1{[ac].D.G.P.T.L.R.E.W.I.S.F.C.[am]}|PEPTIDE2{[ac].D.G.P.T.L.R.E.W.I.S.F.C.[am]}$PEPTIDE1,PEPTIDE2,13:R3-13:R3$$$V2.0; C-terminus assumed)	≤ 500	
CC[C@H](C)[C@H](NC(=O)[C@H](Cc1c[nH]c2ccccc12)NC(=O)[C@H](CCC(=O)O)NC(=O)[C@H](CCCNC(=N)N)NC(=O)[C@H](CC(C)C)NC(=O)[C@@H](NC(=O)[C@@H]1CCCN1C(=O)CNC(C)=O)[C@@H](C)O)C(=O)N[C@@H](CO)C(=O)N[C@@H](Cc1ccccc1)C(=O)N[C@@H](CSSC[C@H](NC(=O)[C@H](Cc1ccccc1)NC(=O)[C@H](CO)NC(=O)[C@@H](NC(=O)[C@H](Cc1c[nH]c2ccccc12)NC(=O)[C@H](CCC(=O)O)NC(=O)[C@H](CCCNC(=N)N)NC(=O)[C@H](CC(C)C)NC(=O)[C@@H](NC(=O)[C@@H]1CCCN1C(=O)CNC(C)=O)[C@@H](C)O)[C@@H](C)CC)C(N)=O)C(N)=O (HELM PEPTIDE1{[ac].G.P.T.L.R.E.W.I.S.F.C.[am]}|PEPTIDE2{[ac].G.P.T.L.R.E.W.I.S.F.C.[am]}$PEPTIDE1,PEPTIDE2,12:R3-12:R3$$$V2.0; C-terminus assumed)	≤ 500	
CC[C@H](C)[C@H](NC(=O)[C@H](Cc1c[nH]c2ccccc12)NC(=O)[C@H](CCC(=O)O)NC(=O)[C@H](CCCNC(=N)N)NC(=O)[C@H](CC(C)C)NC(=O)[C@@H](NC(=O)[C@@H]1CCCN1C(C)=O)[C@@H](C)O)C(=O)N[C@@H](CO)C(=O)N[C@@H](Cc1ccccc1)C(=O)N[C@@H](CSSC[C@H](NC(=O)[C@H](Cc1ccccc1)NC(=O)[C@H](CO)NC(=O)[C@@H](NC(=O)[C@H](Cc1c[nH]c2ccccc12)NC(=O)[C@H](CCC(=O)O)NC(=O)[C@H](CCCNC(=N)N)NC(=O)[C@H](CC(C)C)NC(=O)[C@@H](NC(=O)[C@@H]1CCCN1C(C)=O)[C@@H](C)O)[C@@H](C)CC)C(N)=O)C(N)=O (HELM PEPTIDE1{[ac].P.T.L.R.E.W.I.S.F.C.[am]}|PEPTIDE2{[ac].P.T.L.R.E.W.I.S.F.C.[am]}$PEPTIDE1,PEPTIDE2,11:R3-11:R3$$$V2.0; C-terminus assumed)	≤ 500	
CC[C@H](C)[C@H](NC(=O)[C@H](Cc1c[nH]c2ccccc12)NC(=O)[C@H](CCC(=O)O)NC(=O)[C@H](CCCNC(=N)N)NC(=O)[C@H](CC(C)C)NC(=O)[C@@H](NC(C)=O)[C@@H](C)O)C(=O)N[C@@H](CO)C(=O)N[C@@H](Cc1ccccc1)C(=O)N[C@@H](CSSC[C@H](NC(=O)[C@H](Cc1ccccc1)NC(=O)[C@H](CO)NC(=O)[C@@H](NC(=O)[C@H](Cc1c[nH]c2ccccc12)NC(=O)[C@H](CCC(=O)O)NC(=O)[C@H](CCCNC(=N)N)NC(=O)[C@H](CC(C)C)NC(=O)[C@@H](NC(C)=O)[C@@H](C)O)[C@@H](C)CC)C(N)=O)C(N)=O (HELM PEPTIDE1{[ac].T.L.R.E.W.I.S.F.C.[am]}|PEPTIDE2{[ac].T.L.R.E.W.I.S.F.C.[am]}$PEPTIDE1,PEPTIDE2,10:R3-10:R3$$$V2.0; C-terminus assumed)	200000	
CC[C@H](C)[C@@H]1NC(=O)[C@H](Cc2c[nH]c3ccccc23)NC(=O)[C@H](CCC(=O)O)NC(=O)[C@H](CCCNC(=N)N)NC(=O)[C@H](CC(C)C)NC(=O)[C@H]([C@@H](C)O)NC(=O)[C@@H]2CCCN2C(=O)CNC(=O)[C@H](CC(=O)O)NC(=O)[C@H](C)NC(=O)CSC[C@@H](C(=O)NCC(N)=O)NC(=O)[C@H](Cc2ccccc2)NC(=O)[C@H](CO)NC1=O [C-term, Gly addition] (HELM PEPTIDE1{[O=C(C[*:3])[*:2]].A.D.G.P.T.L.R.E.W.I.S.F.C.G.[am]}$PEPTIDE1,PEPTIDE1,1:R3-14:R3$$$V2.0; C-terminus assumed)		IC50 (Table 6): ≤ 500 nM
